Experiments:
[1] = tested on: F21T (DNA, G4) GGGTTAGGGTTAGGGTTAGGG; assay: FRET melting; conditions: 100 mM K+; potassium cacodylate, pH 7.0; 5 µM compound; 0.2 µM DNA
[2] = tested on: F10T (DNA, hairpin, hexaethylene glycol (HEG) linker between 8 and 9) TATAGCTATATAGCTATAT; assay: FRET melting; conditions: 10 mM Li+; lithium cacodylate, pH 7.4; 5 µM compound; 0.2 µM DNA
[3] = tested on: ssDNA (DNA, single strand) CCAGTTCGTAGTAACCC; assay: luminescence response; conditions: none stated in assay buffer; 10 mM Tris-HCl, pH 7.2; 1.5 µM complex; 5 µM DNA highest tested
[4] = tested on: c-myc (DNA, G4) TGAGGGTGGGTAGGGTGGGTAA; assay: G4-FID, thiazole orange displacement; conditions: 100 mM KCl; 10 mM Tris-HCl, pH 7.2; 0.25 µM DNA; 0.50 µM thiazole orange displaced
[5] = tested on: ds26 (DNA, duplex) CAATCGGATCGAATTCGATCCGATTG; assay: G4-FID, thiazole orange displacement; conditions: 100 mM KCl; 10 mM Tris-HCl, pH 7.2; 0.75 µM thiazole orange; <15% displaced at highest concentration 1.25 µM
[6] = tested on: c-myc (DNA, G4) TGAGGGTGGGTAGGGTGGGTAA; assay: luminescence response; conditions: 20 mM KCl (annealing); 10 mM Tris-HCl, pH 7.2; 1.5 µM complex; 5 µM DNA; intensity ratio 7.5 over ds26, 5.5 over ssDNA

Row | Structure (SMILES) | ΔTm [1] | ΔTm [2] [°C] | binding [3] | G4DC50 [4] [µM] | DC50 [5] [nM] | binding [6]
1 | Cc1ccc(-c2ccc(C)cn2)nc1.[Ir+3].[c-]1ccccc1-c1nc2ccccc2[nH]1.[c-]1ccccc1-c1nc2ccccc2[nH]1 | ~ 6.0 °C | 2 | no | 0.85 | > 1250 | –
2 | Cc1ccc(-c2ccc(C)cn2)nc1.[Ir+3].[c-]1ccccc1-c1nc2ccccc2s1.[c-]1ccccc1-c1nc2ccccc2s1 | – | – | – | – | – | yes

Source: paper PMC5707507 (2015)
